The record followed here is patent US12479794B2, “Acetophenone oxime compound and application thereof” (Medshine Discovery Inc., priority 2020, dated 2025).

In one series the target is T1, S1P4 (Homo sapiens, UniProt O95977).
T1 construct: expressed in transfected cells
T1 sequence (O95977 1-384): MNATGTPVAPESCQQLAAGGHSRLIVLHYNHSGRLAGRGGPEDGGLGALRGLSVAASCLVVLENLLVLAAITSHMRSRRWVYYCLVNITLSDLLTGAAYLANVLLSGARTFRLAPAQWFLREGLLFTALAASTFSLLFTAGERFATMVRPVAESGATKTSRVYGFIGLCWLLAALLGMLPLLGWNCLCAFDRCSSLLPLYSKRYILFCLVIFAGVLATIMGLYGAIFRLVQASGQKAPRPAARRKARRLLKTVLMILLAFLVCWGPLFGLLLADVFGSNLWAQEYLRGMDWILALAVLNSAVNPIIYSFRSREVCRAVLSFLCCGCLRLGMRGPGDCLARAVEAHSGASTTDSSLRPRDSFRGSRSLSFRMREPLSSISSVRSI
The series can be described thus: In vitro agonistic activity on S1P4, PathHunter cell line. To be noted: PathHunter cells. Format: cell-based. On the procedure:
Assay Example 5: In Vitro Evaluation of the Agonistic Activity of the Compound of the Present Disclosure on S1P2, S1P3 and S1P4
Object of the assay: To detect the agonistic activity of the compound on S1P2, S1P3, and S1P4
• 1. PathHunter cell line was expanded from freezer according to standard procedures. • 2. Cells were seeded into a white 384-well microplate in a total volume of 20 μL and incubated at 37° C. for an appropriate time prior to testing. II. Agonist Assay • 1. For the agonist assay, cells were incubated with a sample to induce a response. • 2. Stock solution was stored in a buffer at a concentration of 5 times the concentration to be tested. • 3. 5 μl of the stock solution sample at a concentration of 5 times the concentration to be tested was added to the cells and incubated at 37° C. or room temperature for 90-180 min with a vehicle concentration of 1%. III. Signal Detection • 1. […] Chemiluminescent Signal detection was performed using a PerkinElmer Envision™ instrument, and the microplate was read after signal generation. […] The activity of the compound was analyzed using the CBIS data analysis suite (ChemInnovation, CA). • 2. For the agonist mode assay, the percent activity was calculated using the following formula: % Activity=100%×(Mean RLU of the Assay Sample−Mean RLU of the Blank Control)/(Mean MAX Control Ligand−Mean RLU of the Blank Control).

Series [1] is described as follows: Metabolite identification after incubation in human hepatocytes. Format: in vitro ADME. Particulars: 10 μM, 37° C., 2 hours. On the procedure: Assay Example 4: Analysis and Identification of Metabolites of the Compound in Human Liver Microsome and Hepatocyte Incubation System
By using high-resolution mass spectrometry, the metabolite produced by the incubation of compound 32B in human liver microsomes and human hepatocytes was found, and identified for its structure; the percentage content of compound 32B and its metabolite was calculated by using LC-UV; and the possible biotransformation pathway of compound 32B in human liver microsomes and human hepatocytes in vitro was studied.
Compound 32B (10 μM) was incubated in mouse, rat, canine, monkey, and human hepatocyte systems at 37° C. for 120 min. 7-ethoxycoumarin (7-EC, 30 μM) was used as a positive control to evaluate the enzymatic metabolic activity in the hepatocyte incubation system. The incubated sample was analyzed by LC-UV-MS. The structure of each metabolite was resolved and identified based on its primary and secondary mass spectrometry signals and/or comparison with a standard. The relative percentage of the UV-integrated peak area of each metabolite was given through data collected from the sample by HPLC-UV-MS, and the possible structure of the metabolite and its possible metabolic pathway in various genera of hepatocytes were inferred from the mass spectrometry information of the metabolite.

Some results are limits rather than exact numbers.

A word on the EC50: it is the midpoint of the concentration-response curve. Turning to `CC(=NOCc1ccc(OC(C)C)c(C(F)(F)F)c1)c1ccc2c(c1)CCC2N1CC(C(=O)O)C1` (single isomer, unassigned) [Compound 32B], the EC50 on S1P4 was above 300 nM. In series [1], the Metabolites detected entry is “no other metabolite was detected” and the “Relative abundance of the original drug” value is 100.00%.
